In patent US20130224795A1, “IMMOBILIZATION METHOD OF BIOACTIVE MOLECULES USING POLYPHENOL OXIDASE” (Ajou University Industry-Academic Cooperation Foundation, priority 2010, published 2013):

Tests used:
[1] = Contact angle measurement on immobilized substrate surfaces; type: physicochemical; conditions: stainless steel or titanium; immobilization 30 min; tyramine with tyrosinase 0.4 KU/mL, dopamine without
Experimental: For experiments, dopamine and tyramine/tyrosinase were immobilized onto metal surfaces. In this regard, 450 μL of phosphate saline buffer was added to a piece of stainless steel or titanium metal and mixed with 40 μL of dopamine or tyramine having a concentration of 100 μg/mL. In the case of tyramine, tyrosinase having a concentration of 0.4 KU/mL was added in an amount of 10 μL. For effective comparison, a reaction was performed for 30 min. After immobilization, the specimens were washed three to five times with distilled water. An analysis was made of the results using contact angles and amine distributions on the surface. For contact angle measurements, droplets of 1 μL were deposited on a specimen surface and the angle at which the droplet interface meets the surface was measured using a contact angle meter (GBX Inc., France) and image analysis software.
Contact angles were measured to examine the change in hydrophilicity of bioactive molecule-immobilized surface. Droplets of 1 μL were deposited on a specimen surface after which contact angles were measured using a contact anglemeter (GBX Inc., France) equipped with image analysis software.

osteoblasts (MC3T3-E1) = assay: Cell proliferation assay (MTT); type: cell-based; conditions: immobilized stainless steel; 1×10^4 cell/cm^2; 7 days; versus bare surface
Experimental: For cell proliferation assay, osteoblasts (MC3T3-E1) were cultured at a density of 1×10^4 cell/cm^2 for 7 days on RGD- or gelatin-immobilized stainless steel, titanium or polyurethane surfaces, followed by conducting an MTTassay. Each specimen is represented in the form of, for example, ST-RGD 0.17 which stands for the immobilization of RGD at a concentration of 0.17 μg/cm^2 on stainless steel.

| contact angle [1] | Compound | proliferation of osteoblasts (osteoblasts (MC3T3-E1)) |
| --- | --- | --- |
| 30 ° | NCCc1ccc(O)cc1 [tyramine] |  |
|  | gelatin-poly(ethylene glycol)-tyramine | improved the proliferation |
| 45 ° | NCCc1ccc(O)c(O)c1 [dopa, dopamine] |  |
